US20040006048A1, “Combination of lecithin with ascorbic acid” (priority 2002, published 2004)

Assays:
Assay type in all cases: in vivo
[1] = system: rats in scopolamine induced memory deficit; assay: Scopolamine induced memory deficit, water labyrinth learning test; details: scopolamine model, combination 2 × (30 + 10) mg/kg/day p.o.
normal rats = assay: Learning process of normal rats in water labyrinth; details: for Number of errors Mean ± S.E.M. / Swimming time (sec) Mean ± SEM.: p.o., Vit.-C 2 × 10, Lecithin 2 × 30, combination 2 × (30 + 10) mg/kg/day
From the text: Ascorbic acid and lecithin were ineffective when they were given separately (Table I.).

normal mice = assay: Swimming test, physical performance of normal mice; details: for Swimming time (sec) mean ± S.E.M.: p.o., Vit-C 2 × 10, Lecithin 2 × 30, combination 2 × (30 + 10) mg/kg/day
From the text: In the study ascorbic acid was ineffective, when it was given in itself (Table III.).

[2] = versus vehicle (control) and single components

SMILES: CN1[C@@H]2C[C@@H](OC(=O)[C@H](CO)c3ccccc3)C[C@H]1[C@@H]1O[C@@H]12 [Scopolamine, scopolamine]
- Number of errors Mean ± S.E.M. ([1]; session 1): 16.2 ± 0.83
- Swimming time (sec) mean ± S.E.M. ([1]; session 1): 114.7 ± 9.45 s
- Number of errors Mean ± S.E.M. ([1]; session 2): 11.6 ± 0.52^++
- Swimming time (sec) mean ± S.E.M. ([1]; session 2): 73.7 ± 6.22 s
- Number of errors Mean ± S.E.M. ([1]; session 3): 8.9 ± 0.41^++
- Number of errors Mean ± S.E.M. ([1]; session 4): 6.3 ± 0.26^++

SMILES: O=C1O[C@H]([C@@H](O)CO)C(O)=C1O [Vit.-C, ascorbic acid]
- Number of errors Mean ± S.E.M. (normal rats; session 1): 16.4 ± 0.45
- Swimming time (sec) Mean ± SEM. (normal rats; session 1): 140.3 ± 9.54 s
- Number of errors Mean ± S.E.M. (normal rats; session 2): 11.6 ± 0.40
- Swimming time (sec) Mean ± SEM. (normal rats; session 2): 89.9 ± 6.22 s
- Number of errors Mean ± S.E.M. (normal rats; session 3): 6.2 ± 0.76
- Swimming time (sec) Mean ± SEM. (normal rats; session 3): 64.9 ± 7.29 s
- Number of errors Mean ± S.E.M. (normal rats; session 4): 3.9 ± 0.35
- Swimming time (sec) Mean ± SEM. (normal rats; session 4): 34.8 ± 2.79 s
- Effect on the learning process of rats in water labyrinth (in words) (normal rats; [2]): ineffective
- Swimming time (sec) mean ± S.E.M. (normal mice; 1. day starting values): 76.2 ± 3.7 s
- Swimming time (sec) mean ± S.E.M. (normal mice; 2. day): 70.8 ± 3.8 s
- Swimming time (sec) mean ± S.E.M. (normal mice; 3. day): 82.2 ± 3.4 s
- Swimming time (sec) mean ± S.E.M. (normal mice; 4. day): 88.8 ± 6.1 s
- Swimming time (sec) mean ± S.E.M. (normal mice; 5. day): 90.0 ± 6.9 s
- Effect on the physical performance of mice in swimming test (in words) (normal mice; [2]): ineffective
